US9657006B2, “Macrocyclic factor VIIa inhibitors” (BRISTOL-MYERS SQUIBB COMPANY, priority 2013, dated 2017)
Structures can show the parent of a compound that is named as a salt.

These compounds were tested against T1, FVIIa (Homo sapiens, UniProt P08709) (assay: FVIIa Ki (25° C.): FVIIa peptide substrate assay). Conditions: S2288 peptide substrate, full-length human TF.
T1 construct: with about 1% of the total amount in the proteolytically active form factor VIIa
Assay type: biochemical
Experimental: The effectiveness of compounds of the present invention as inhibitors of the coagulation Factors, VIIa, IXa, Xa, XIa, XIIa, plasma kallikrein or thrombin, tissue kallikrein and activated protein C, can be determined using a relevant purified serine protease, respectively, and an appropriate synthetic substrate. The rate of hydrolysis of the chromogenic or fluorogenic substrate by the relevant serine protease was measured both in the absence and presence of compounds of the present invention. […] A decrease in the rate of absorbance or fluorescence change in the presence of inhibitor is indicative of enzyme inhibition. Such methods are known to one skilled in the art. The results of this assay are expressed as the inhibitory constant, Ki.
a. FVIIa Ki (25° C.): FVIIa Peptide Substrate Assay
S2288 (range of concentrations) and FVIIa inhibitor were incubated for 15 minutes (min) at 25° C. Reactions were initiated by addition of a solution of full-length human TF (6 nM), FVIIa (0.75 nM), and PCPS (25 μM). FVIIa hydrolyses S2288, which was monitored for up to 60 min at 405 nm. Steady-state reaction velocity data (vs) was globally fit to Equation 1 for competitive inhibition. vs=Vmax[S]/([S]+Km(1+[I]/Ki)) (Eq. 1) where Vmax is maximum velocity, [S] is substrate concentration, Km is the Michaelis-Menten constant, [I] is the inhibitor concentration, and Ki is the inhibitor dissociation constant (GraFit, version 5, Erithacus Software Ltd, West Sussex, UK).

T1 sequence (P08709 213-466 limits assumed): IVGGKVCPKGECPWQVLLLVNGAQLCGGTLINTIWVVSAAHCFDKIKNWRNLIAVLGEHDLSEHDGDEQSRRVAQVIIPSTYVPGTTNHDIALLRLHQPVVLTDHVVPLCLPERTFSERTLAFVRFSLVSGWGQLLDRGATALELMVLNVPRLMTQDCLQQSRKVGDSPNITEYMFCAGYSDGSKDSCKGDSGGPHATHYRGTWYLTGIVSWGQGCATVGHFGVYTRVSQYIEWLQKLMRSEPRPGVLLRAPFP
T1 sequence (P08709 61-212 limits assumed): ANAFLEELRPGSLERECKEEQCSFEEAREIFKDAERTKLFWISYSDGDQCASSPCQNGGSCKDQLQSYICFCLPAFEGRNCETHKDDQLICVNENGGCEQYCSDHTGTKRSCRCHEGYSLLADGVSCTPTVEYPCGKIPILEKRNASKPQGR
T1 sequence (P13726 33-295 partner): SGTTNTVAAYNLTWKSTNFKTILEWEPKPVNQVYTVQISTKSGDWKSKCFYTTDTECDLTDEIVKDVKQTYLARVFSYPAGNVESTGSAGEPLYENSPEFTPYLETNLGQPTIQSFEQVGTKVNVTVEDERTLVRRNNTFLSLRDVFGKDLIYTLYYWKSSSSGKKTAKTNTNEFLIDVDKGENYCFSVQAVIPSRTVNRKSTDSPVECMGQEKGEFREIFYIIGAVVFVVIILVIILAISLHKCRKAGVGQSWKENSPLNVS

**Q.** How did the Ki turn out when CN1Cc2cc(ccc2S(=O)(=O)C2CC2)NC(=O)OCc2cccc(c2)[C@@H](Nc2ccc3c(N)nccc3c2)C1=O (single isomer, unassigned) [Example 3] was run?
**A.** Its Ki is 560 nM.

**Q.** Which Ki does the source give for CN1CCc2cccc(c2)[C@@H](Nc2ccc3c(N)ncc(F)c3c2)C(=O)N(C)Cc2cc(ccc2S(=O)(=O)C2CC2)NC1=O (single isomer, unassigned) [Example 28] here?
**A.** The Ki was 14 nM.

**Q.** Which Ki does the source give for CN1Cc2cc(ccc2S(=O)(=O)C2CC2)NC(=O)OCC2(CC2)c2cccc(c2)C(Nc2ccc3c(N)nccc3c2)C1=O (centres unmarked) [Example 5, trifluoroacetic acid salt] here?
**A.** The Ki was 950 nM.

**Q.** C[C@@H]1COC(=O)Nc2ccc(S(=O)(=O)C3CC3)c(c2)CN(C)C(=O)[C@H](Nc2ccc3c(N)nccc3c2)c2cccc1c2 (single isomer, unassigned) [Example 7] was tested. Which Ki did it give?
**A.** The Ki was 115 nM.

**Q.** Which Ki does the source give for “(R)-11-(1-Amino-4-fluoro-isoquinolin-6-ylamino)-16-cyclopropane sulfonyl-7-(2,2-difluoro-ethoxy)-13-methyl-2,13-diaza-tricyclo[13.3.1.1^6,10]icosa-1(18),6,8,10(20),15(19),16-hexaene-3,12-dione trifluoroacetic acid salt [Example 33]” here?
**A.** Its Ki is 21 nM.

**Q.** Which Ki does the source give for CN1Cc2cc(ccc2S(=O)(=O)C2CC2)NC(=O)N(CC2CCC2)CCc2cccc(c2)C(Nc2ccc3c(N)ncc(F)c3c2)C1=O (centres unmarked) [Example 27, 5-(1-Amino-4-fluoro-isoquinolin-6-ylamino)-13-cyclobutylmethyl-19-cyclopropanesulfonyl-3-methyl-3,13,15-triaza-tricyclo[14.3.1.1^6,10]henicosa-1(19),6(21),7,9,16(20),17-hexaene-4,14-dione trifluoroacetic acid salt] here?
**A.** The Ki was 148 nM.

**Q.** Which Ki does the source give for CN1Cc2cc(ccc2S(=O)(=O)C2CC2)NC(=O)CCc2cccc(c2)[C@@H](Nc2ccc3c(N)nccc3c2)C1=O (single isomer, unassigned) [Example 8] here?
**A.** The Ki was 5 nM.

**Q.** With COc1ccc2cc1COCC(=O)Nc1ccc(S(=O)(=O)C3CC3)c(c1)CN(C)C(=O)[C@@H]2Nc1ccc2c(N)nccc2c1 [Example 9, (R)-5-(1-Amino-isoquinolin-6-ylamino)-19-cyclopropanesulfonyl-9-methoxy-3-methyl-12-oxa-3,15-diaza-tricyclo[14.3.1.1^6,10]henicosa-1(19),6(21),7,9,16(20),17-hexaene-4,14-dione trifluoroacetic acid salt+Enantiomer] as the compound, how does the Ki read?
**A.** The Ki was 23 nM.

**Q.** How did the Ki turn out when “4-((R)-16-Difluoromethoxy-17-fluoro-3,12-dioxo-2,13-diaza-tricyclo[13.3.1.1^6,10]icosa-1(19),6,8,10(20),15,17-hexaen-11-ylamino)-benzamidine trifluoroacetic acid salt [Example 37]” was run?
**A.** Its Ki is 11 nM.

**Q.** Which Ki does the source give for CN1CCc2cc(ccc2OCc2ccccc2)C(Nc2ccc3c(N)ncc(F)c3c2)C(=O)N(C)Cc2cc(ccc2S(=O)(=O)C2CC2)NC1=O (centres unmarked) [Example 19, 5-(1-Amino-4-fluoro-isoquinolin-6-ylamino)-9-benzyloxy-19-cyclopropanesulfonyl-3,13-dimethyl-3,13,15-triaza-tricyclo[14.3.1.1^6,10]henicosa-1(19),6(21),7,9,16(20),17-hexaene-4,14-dione, trifluoroacetic acid salt] here?
**A.** The Ki was 115 nM.

**Q.** COc1ccc2cc1[C@H](C)CN(C)C(=O)Nc1ccc(S(=O)(=O)C3CC3)c(c1)CN(C)C(=O)C2Nc1ccc2c(N)nccc2c1 (mixture of isomers) [Example 12, (S)-5-(1-Amino-isoquinolin-6-ylamino)-19-cyclopropanesulfonyl-9-methoxy-3,11,13-trimethyl-3,13,15-triaza-tricyclo[14.3.1.1^6,10]henicosa-1(20),6(21),7,9,16,18-hexaene-4,14-dione trifluoroacetic acid salt] was tested. Which Ki did it give?
**A.** Its Ki is 47 nM.

**Q.** Which Ki does the source give for CN1CCc2cc(ccc2OCC(F)F)[C@@H](Nc2ccc3c(N)ncc(F)c3c2)C(=O)N(C)Cc2cc(ccc2S(=O)(=O)C(F)F)NC1=O (single isomer, unassigned) [Example 39, trifluoroacetic acid salt] here?
**A.** Its Ki is 120 nM.

**Q.** How did the Ki turn out when CN1Cc2cc(ccc2S(=O)(=O)C2CC2)NC(=O)OCCc2cccc(c2)[C@@H](Nc2ccc3c(N)nccc3c2)C1=O [Example 1, (R)-5-(1-Amino-isoquinolin-6-ylamino)-19-cyclopropanesulfonyl-3-methyl-13-oxa-3,15-diaza-tricyclo[14.3.1.1^6,10]henicosa-1(19),6(21),7,9,16(20),17-hexaene-4,14-dione trifluoroacetic acid salt+Enantiomer] was run?
**A.** Its Ki is 188 nM.

**Q.** With COc1ccc2cc1CCC(=O)Nc1ccc(S(=O)(=O)C3CC3)c(c1)CN(C)C(=O)[C@@H]2Nc1ccc2c(N)ncc(F)c2c1 (single isomer, unassigned) [Example 11] as the compound, how does the Ki read?
**A.** Its Ki is 5 nM.

**Q.** Which Ki does the source give for CN1Cc2cc(ccc2S(=O)(=O)C2CC2)NC(=O)CCc2cc(ccc2F)[C@@H](Nc2ccc3c(N)ncc(F)c3c2)C1=O (single isomer, unassigned) [Example 14] here?
**A.** The Ki was 5 nM.

**Q.** With CN1Cc2cc(ccc2S(=O)(=O)C2CC2)NC(=O)OCC(C)(C)c2cccc(c2)[C@@H](Nc2ccc3c(N)nccc3c2)C1=O (single isomer, unassigned) [Example 4] as the compound, how does the Ki read?
**A.** The Ki was 1480 nM.

**Q.** For C[C@@H]1CC(=O)Nc2ccc(OC(F)F)c(c2)CN(C)C(=O)[C@H](Nc2ccc(C(=N)N)cc2)c2ccc(OCC(F)F)c1c2 (single isomer, unassigned) [Example 43, trifluoroacetic acid salt], which Ki is on record?
**A.** Its Ki is 5 nM.

**Q.** Which Ki does the source give for CN1Cc2cc(ccc2S(=O)(=O)C2CC2)NC(=O)CCc2cc(ccc2OCC2CC2)[C@@H](Nc2ccc3c(N)ncc(F)c3c2)C1=O [Example 22, (R)-11-(1-Amino-4-fluoro-isoquinolin-6-ylamino)-16-cyclopropane sulfonyl-7-cyclopropylmethoxy-13-methyl-2,13-diaza-tricyclo[13.3.1.1^6,10]icosa-1(19),6,8,10(20),15,17-hexaene-3,12-dione trifluroracetic acid salt] here?
**A.** Its Ki is 5 nM.

**Q.** With CN1Cc2cc(ccc2S(=O)(=O)C2CC2)NC(=O)CCc2cccc(c2)[C@@H](Nc2ccc3c(N)ncc(F)c3c2)C1=O (single isomer, unassigned) [Example 17] as the compound, how does the Ki read?
**A.** Its Ki is 7 nM.

**Q.** For C[C@H]1CC(=O)Nc2ccc(S(=O)(=O)C3CC3)c(c2)CN(C)C(=O)[C@H](Nc2ccc3c(N)ncc(F)c3c2)c2ccc(OCC(F)F)c1c2 (single isomer, unassigned) [Example 32, trifluoroacetic acid salt], which Ki is on record?
**A.** Its Ki is 31 nM.

**Q.** COc1ccc2cc1CCOC(=O)Nc1ccc(S(=O)(=O)C3CC3)c(c1)CN(C)C(=O)[C@@H]2Nc1ccc2c(N)nccc2c1 (single isomer, unassigned) [Example 6] was tested. Which Ki did it give?
**A.** Its Ki is 44 nM.

**Q.** For COc1ccc2cc1CCC(=O)Nc1ccc(S(=O)(=O)C(F)(F)F)c(c1)CN(C)C(=O)[C@@H]2Nc1ccc2c(N)nccc2c1 (single isomer, unassigned) [Example 34, trifluoroacetic acid salt], which Ki is on record?
**A.** The Ki was 5 nM.

**Q.** For CN1Cc2cc(ccc2S(=O)(=O)C2CC2)NC(=O)CCc2cc(ccc2OCC2CCC2)[C@@H](Nc2ccc3c(N)ncc(F)c3c2)C1=O [Example 25, (R)-11-(1-Amino-4-fluoro-isoquinolin-6-ylamino)-7-cyclobutylmethoxy-16-cyclopropanesulfonyl-13-methyl-2,13-diaza-tricyclo[13.3.1.1^6,10]icosa-1(19),6,8,10(20),15,17-hexaene-3,12-dione trifluroracetic acid salt], which Ki is on record?
**A.** The Ki was 6 nM.
